According to the NIST ThermoML archive (doi:10.1016/j.jct.2013.09.043):
± gives the expanded uncertainty stated by the source.

What was measured:
[1] = 101 kPa, Liquid; for viscosity: Capillary tube (Ostwald / Ubbelohde) method; for mass density: Vibrating tube method
[2] = xn = mol fraction of the nth substance listed; settings: 101 kPa, Liquid; for viscosity: Capillary tube (Ostwald / Ubbelohde) method; for mass density: Vibrating tube method

SMILES	viscosity ([1]; 298.15 K)	mass density ([1]; 298.15 K)	viscosity ([1]; 303.15 K)	mass density ([1]; 303.15 K)	viscosity ([1]; 308.15 K)	mass density ([1]; 308.15 K)	viscosity ([1]; 313.15 K)	mass density ([1]; 313.15 K)	further results
CCCCCC(C)O (stereo not drawn) [2-heptanol]	5.296 ± 0.21 mPa·s	813.38 ± 1 kg/m3	4.315 ± 0.17 mPa·s	809.5 ± 1 kg/m3	3.535 ± 0.14 mPa·s	805.72 ± 1 kg/m3	2.96 ± 0.12 mPa·s	801.46 ± 1 kg/m3	–
NC=O [formamide] + CCCC(C)O	–	–	–	–	–	–	–	–	viscosity ([2]; 298.15 K, x1 = 1): 3.305 ± 0.13 mPa·s; mass density ([2]; 298.15 K, x1 = 1): 1129 ± 1 kg/m3; viscosity ([2]; 303.15 K, x1 = 1): 2.975 ± 0.12 mPa·s; mass density ([2]; 303.15 K, x1 = 1): 1125.1 ± 1 kg/m3; viscosity ([2]; 308.15 K, x1 = 1): 2.64 ± 0.11 mPa·s; mass density ([2]; 308.15 K, x1 = 1): 1120.98 ± 1 kg/m3; viscosity ([2]; 313.15 K, x1 = 1): 2.42 ± 0.098 mPa·s; mass density ([2]; 313.15 K, x1 = 1): 1116.85 ± 1 kg/m3
NC=O [formamide]	3.305 ± 0.13 mPa·s	1129 ± 1 kg/m3	2.975 ± 0.12 mPa·s	1125.1 ± 1 kg/m3	2.64 ± 0.11 mPa·s	1120.98 ± 1 kg/m3	2.42 ± 0.098 mPa·s	1116.85 ± 1 kg/m3	–
CCC(C)O (stereo not drawn) [butan-2-ol] + NC=O	–	–	–	–	–	–	–	–	viscosity ([2]; 298.15 K, x2 = 0): 3.034 ± 0.12 mPa·s; mass density ([2]; 298.15 K, x2 = 0): 803.09 ± 1 kg/m3; viscosity ([2]; 303.15 K, x2 = 0): 2.527 ± 0.1 mPa·s; mass density ([2]; 303.15 K, x2 = 0): 798.89 ± 1 kg/m3; viscosity ([2]; 308.15 K, x2 = 0): 2.125 ± 0.086 mPa·s; mass density ([2]; 308.15 K, x2 = 0): 795.04 ± 1 kg/m3; viscosity ([2]; 313.15 K, x2 = 0): 1.798 ± 0.073 mPa·s; mass density ([2]; 313.15 K, x2 = 0): 790.15 ± 1 kg/m3
CCCCC(C)O (stereo not drawn) [2-hexanol]	4.101 ± 0.17 mPa·s	810.14 ± 1 kg/m3	3.411 ± 0.14 mPa·s	806.13 ± 1 kg/m3	2.819 ± 0.12 mPa·s	802.06 ± 1 kg/m3	2.219 ± 0.09 mPa·s	797.96 ± 1 kg/m3	–
NC=O [formamide] + CCCCC(C)O	–	–	–	–	–	–	–	–	viscosity ([2]; 298.15 K, x1 = 1): 3.305 ± 0.13 mPa·s; mass density ([2]; 298.15 K, x1 = 1): 1129 ± 1 kg/m3; viscosity ([2]; 303.15 K, x1 = 1): 2.975 ± 0.12 mPa·s; mass density ([2]; 303.15 K, x1 = 1): 1125.1 ± 1 kg/m3; viscosity ([2]; 308.15 K, x1 = 1): 2.64 ± 0.11 mPa·s; mass density ([2]; 308.15 K, x1 = 1): 1120.98 ± 1 kg/m3; viscosity ([2]; 313.15 K, x1 = 1): 2.42 ± 0.098 mPa·s; mass density ([2]; 313.15 K, x1 = 1): 1116.85 ± 1 kg/m3
NC=O [formamide] + CCCCCC(C)O	–	–	–	–	–	–	–	–	viscosity ([2]; 298.15 K, x1 = 1): 3.305 ± 0.13 mPa·s; mass density ([2]; 298.15 K, x1 = 1): 1129 ± 1 kg/m3; viscosity ([2]; 303.15 K, x1 = 1): 2.975 ± 0.12 mPa·s; mass density ([2]; 303.15 K, x1 = 1): 1125.1 ± 1 kg/m3; viscosity ([2]; 308.15 K, x1 = 1): 2.64 ± 0.11 mPa·s; mass density ([2]; 308.15 K, x1 = 1): 1120.98 ± 1 kg/m3; viscosity ([2]; 313.15 K, x1 = 1): 2.42 ± 0.098 mPa·s; mass density ([2]; 313.15 K, x1 = 1): 1116.85 ± 1 kg/m3
CC(C)O [propan-2-ol] + NC=O	–	–	–	–	–	–	–	–	viscosity ([2]; 298.15 K, x2 = 0): 2.077 ± 0.084 mPa·s; mass density ([2]; 298.15 K, x2 = 0): 780.95 ± 1 kg/m3; viscosity ([2]; 303.15 K, x2 = 0): 1.787 ± 0.072 mPa·s; mass density ([2]; 303.15 K, x2 = 0): 776.79 ± 1 kg/m3; viscosity ([2]; 308.15 K, x2 = 0): 1.558 ± 0.063 mPa·s; mass density ([2]; 308.15 K, x2 = 0): 772.39 ± 1 kg/m3; viscosity ([2]; 313.15 K, x2 = 0): 1.351 ± 0.055 mPa·s; mass density ([2]; 313.15 K, x2 = 0): 767.76 ± 1 kg/m3
CCC(C)O (stereo not drawn) [butan-2-ol]	3.034 ± 0.12 mPa·s	803.09 ± 1 kg/m3	2.527 ± 0.1 mPa·s	798.89 ± 1 kg/m3	2.125 ± 0.086 mPa·s	795.04 ± 1 kg/m3	1.798 ± 0.073 mPa·s	790.15 ± 1 kg/m3	–

Second part, led by results:

viscosity ([1]; 298.15 K)	mass density ([1]; 298.15 K)	viscosity ([1]; 303.15 K)	mass density ([1]; 303.15 K)	viscosity ([1]; 308.15 K)	mass density ([1]; 308.15 K)	viscosity ([1]; 313.15 K)	mass density ([1]; 313.15 K)	SMILES	further results
2.077 ± 0.084 mPa·s	780.95 ± 1 kg/m3	1.787 ± 0.072 mPa·s	776.79 ± 1 kg/m3	1.558 ± 0.063 mPa·s	772.39 ± 1 kg/m3	1.351 ± 0.055 mPa·s	767.76 ± 1 kg/m3	CC(C)O [propan-2-ol]	–
3.423 ± 0.14 mPa·s	805.05 ± 1 kg/m3	2.834 ± 0.12 mPa·s	800.88 ± 1 kg/m3	2.348 ± 0.095 mPa·s	796.89 ± 1 kg/m3	1.979 ± 0.08 mPa·s	792.62 ± 1 kg/m3	CCCC(C)O (stereo not drawn) [pentan-2-ol]	–
